Experimental data taken from patent publication US11634418B2, “Amino acid compounds and methods of use” (Pliant Therapeutics, Inc., priority 2016, dated 2023).

molecular target: recombinant human integrin αvβ6 (Homo sapiens (Human), UniProt P06756+P18564); experiment: Solid Phase Integrin αvβ6 Binding Assay; settings: inhibition of recombinant TGFβ1 LAP binding to coated integrin; IC50 given as range
Protocol: Microplates were coated with recombinant human integrin αvβ6 (2 ug/ml) in PBS (100 ul/well 25° C. overnight). The coating solution was removed, washed with wash buffer (0.05% Tween 20; 0.5 mM MnCl2; in 1×TBS). Plate was blocked with 200 ul/well of Block Buffer (1% BSA; 5% sucrose; 0.5 mM MnCl2; in 1×TBS) at 37° C. for 2 h. Dilutions of testing compounds and recombinant TGFβ1 LAP (0.67 ug/ml) in binding buffer (0.05% BSA; 2.5% sucrose; 0.5 mM MnCl2; in 1×TBS) were added. The plate was incubated for 2 hours at 25° C., washed, and incubated for 1 hour with Biotin-Anti-hLAP. Bound antibody was detected by peroxidase-conjugated streptavidin. The IC50 values for testing compounds were calculated by a four-parameter logistic regression.

recombinant human integrin αvβ6, sequence (P06756 31-992): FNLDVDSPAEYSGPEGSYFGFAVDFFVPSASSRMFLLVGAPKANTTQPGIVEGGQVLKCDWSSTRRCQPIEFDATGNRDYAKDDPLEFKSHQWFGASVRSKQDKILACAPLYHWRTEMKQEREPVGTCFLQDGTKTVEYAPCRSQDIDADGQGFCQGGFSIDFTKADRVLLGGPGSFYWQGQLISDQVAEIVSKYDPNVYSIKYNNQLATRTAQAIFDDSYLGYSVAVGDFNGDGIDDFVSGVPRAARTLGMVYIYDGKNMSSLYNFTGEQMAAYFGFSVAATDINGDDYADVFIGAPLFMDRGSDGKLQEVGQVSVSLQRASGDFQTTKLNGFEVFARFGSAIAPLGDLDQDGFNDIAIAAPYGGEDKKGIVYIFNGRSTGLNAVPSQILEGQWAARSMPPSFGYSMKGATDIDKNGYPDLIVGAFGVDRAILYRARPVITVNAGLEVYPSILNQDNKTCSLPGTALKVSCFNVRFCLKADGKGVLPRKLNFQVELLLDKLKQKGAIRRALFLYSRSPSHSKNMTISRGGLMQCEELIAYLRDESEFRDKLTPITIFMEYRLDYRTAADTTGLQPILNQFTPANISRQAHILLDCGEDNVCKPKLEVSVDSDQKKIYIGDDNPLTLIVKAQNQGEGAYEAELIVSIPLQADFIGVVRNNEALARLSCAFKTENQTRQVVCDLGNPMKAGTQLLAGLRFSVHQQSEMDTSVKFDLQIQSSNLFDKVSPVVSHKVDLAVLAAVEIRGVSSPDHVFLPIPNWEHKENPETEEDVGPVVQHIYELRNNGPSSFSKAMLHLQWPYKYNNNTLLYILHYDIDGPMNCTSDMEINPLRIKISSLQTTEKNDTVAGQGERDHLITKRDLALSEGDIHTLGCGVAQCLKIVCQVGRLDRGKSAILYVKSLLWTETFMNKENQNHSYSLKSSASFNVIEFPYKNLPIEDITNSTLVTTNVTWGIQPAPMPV
recombinant human integrin αvβ6, sequence (P18564 22-707): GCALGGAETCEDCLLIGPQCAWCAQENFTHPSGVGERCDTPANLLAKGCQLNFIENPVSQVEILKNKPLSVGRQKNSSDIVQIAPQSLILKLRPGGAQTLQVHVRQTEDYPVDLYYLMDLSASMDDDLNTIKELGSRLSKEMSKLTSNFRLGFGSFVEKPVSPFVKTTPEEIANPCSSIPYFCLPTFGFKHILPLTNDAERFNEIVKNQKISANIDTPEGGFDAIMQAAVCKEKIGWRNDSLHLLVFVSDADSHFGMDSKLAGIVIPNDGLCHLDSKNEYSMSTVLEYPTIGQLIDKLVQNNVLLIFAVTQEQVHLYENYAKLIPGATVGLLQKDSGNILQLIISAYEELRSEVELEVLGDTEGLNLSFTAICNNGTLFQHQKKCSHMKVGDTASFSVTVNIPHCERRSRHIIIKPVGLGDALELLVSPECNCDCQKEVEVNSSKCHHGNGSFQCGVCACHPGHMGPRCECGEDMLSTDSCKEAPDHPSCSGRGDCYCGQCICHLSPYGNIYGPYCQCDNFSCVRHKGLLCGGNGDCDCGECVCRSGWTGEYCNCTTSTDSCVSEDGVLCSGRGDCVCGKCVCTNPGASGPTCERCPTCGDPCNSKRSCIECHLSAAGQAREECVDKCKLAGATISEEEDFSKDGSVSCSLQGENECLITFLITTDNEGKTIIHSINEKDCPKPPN

IC50	SMILES
250 to 4000 nM	Cc1cc(C)n(-c2cccc(C(=O)N[C@@H](CCN3CC(CCc4ccc5c(n4)NCCC5)CC(F)(F)C3)C(=O)O)c2)n1 (stereo partly shown) [Compound 42]
50 nM	Cn1ncc2ccc(C(=O)N[C@@H](CCN3CCC[C@@](F)(CCc4ccc5c(n4)NCCC5)C3)C(=O)O)cc21 [Compound 106]
50 nM	O=C(N[C@@H](CCN1CCC[C@@](F)(CCc2ccc3c(n2)NCCC3)C1)C(=O)O)C1CCC(F)(F)CC1 [Compound 107]
> 1000 nM	O=C(O)[C@H](CCN1CC(CCc2ccc3c(n2)NCCC3)C1)NC(=O)[C@@H]1CCCN1Cc1ccccc1 [Compound 143]

Continued, molecule first:

SMILES	IC50
O=C(N[C@@H](CCN1CCC(NCc2ccc3c(n2)NCCC3)CC1)C(=O)O)C1CCC(F)(F)CC1 [Compound 34]	> 1000 nM
CC(C)(O)CN1CCCC1C(=O)N[C@@H](CCN1CC(OCCc2ccc3c(n2)NCCC3)C1)C(=O)O (stereo partly shown) [Compound 134]	250 to 1000 nM
NCCCc1ccc(CCC2CC3CCC2N3CC[C@H](NC(=O)c2cc(F)cc(C(F)(F)F)c2)C(=O)O)nc1 (stereo partly shown) [Compound 141]	< 50 nM
